Assay results from patent publication US12721881B2, “Endostatin peptides for the treatment of tumors, fibrosis and acute lung injury” (MUSC Foundation for Research Development, priority 2019, dated 2026).
Where no end group is shown, it is not given here. The star is where a group is joined. Biotin = O=C1N[C@H]2[C@H](CS[C@H]2CCCCC(=O)*)N1

How the values were obtained:
[1] = system: systemic sclerosis pulmonary fibrosis lung tissues; test: MMP-1 induction in systemic sclerosis pulmonary fibrosis lung tissues in organ culture; assay type: cell-based, human; conditions: 10 μg/ml, TGFbeta, 120 hrs
Protocol: Systemic sclerosis pulmonary fibrosis lung tissues were divided into equal size cores. Lung tissues in organ culture were treated with different peptide fragments derived from endostatin at a final concentration of 10 μg/ml in the presence of TGFbeta for 120 hrs. The induction of matrix metalloprotease (MMP)-1 (also known as collagenase) in media conditioned by the lung tissues was examined as a measure of the ability of the peptide to reduce fibrosis and promote extracellular matrix degradation.

[2] = system: fibroblasts from lungs of patients with SSc; test: Gene expression in fibroblasts from lungs of patients with systemic sclerosis (SSc); assay type: cell-based, human; conditions: SSc lung fibroblasts
Protocol: […] RNA was extracted and levels of alpha smooth muscle actin (SMA) measured by qRT-PCR.
SSc fibroblasts were treated with 10 μg/ml BioE4-03 for 72 hours. RNA was extracted and used to measure SMA and Collagen 1A2.

[3] = system: lung tissues of normal donors; test: Lung tissues of normal donors in organ culture after induction of fibrosis with TGFbeta; assay type: cell-based, human; conditions: normal donor lung tissue; for hydroxyproline levels: fibrosis induced with TGFbeta
[4] = system: fibroblasts from lung tissues of normal donors; test: Alpha smooth muscle actin qRT-PCR in TGFbeta-treated fibroblasts from lung tissues of normal donors; assay type: cell-based, human; conditions: 48 hours
Protocol: Fibroblasts were treated with TGFbeta with or without peptide Bio96-17 for 48 hours. RNA was extracted and levels of alpha smooth muscle actin (SMA) measured by qRT-PCR.

[5] = system: lung tissues of patients with SSc; test: Hydroxyproline in lung tissues of patients with SSc in organ culture; assay type: cell-based, human; conditions: SSc lung tissue, organ culture 72 hours
[6] = system: human lung adenocarcinoma cells (A549); test: IL-6 mRNA by qPCR in A549 cells; assay type: cell-based; conditions: A549, 48 hours, relative to vehicle controls
Protocol: (§1) IL-6 mRNA levels were measured via qPCR in human lung adenocarcinoma cells (A549) treated for 48 hours with BioE4-03 peptide. […] For comparison, a parallel experiment was done using non-biotinylated E4-03. […] Additionally, IL-6 protein levels in the supernatant of A549 cells were measured by ELISA after 72 hours of treatment with E4-03 peptide.

[7] = system: mc-38 colon adenocarcinoma tumor cells; test: mc-38 colon adenocarcinoma tumor growth in mice, oral gavage; assay type: in vivo; conditions: 100 μg/mouse oral gavage twice/week; for mean rate of increase in the tumor volume at day 21: PBS control 151.1 mm^3 per day; for mean tumor volume at day 21 (model-based estimate): PBS control 1492.1 mm^3
Protocol: (§2) For each of the experiments, descriptive statistics (means and standard deviations) for tumor volumes were calculated over time for each experimental group (i.e. Experiment 1: Control vs. BioE4 (FIG. 1); Experiment 2: PBS, Bio96, and BioE4-03 (FIG. 5)). Since tumor growth tends to be curvilinear, general linear mixed models (GLMMs) were created to estimate treatment-specific growth curves over time and to make comparisons between the peptide treatments and control. Separate GLMMs were constructed for each experiment, and each GLMM included random effects for each mouse, to control for the fact that the repeated volume measurements within a given mouse were correlated with one another. Tumor volume served as the dependent variable in each model, while time (in days), […], treatment x time, and treatment x time^2 were included as independent variables. Using these models, the estimated mean tumor volumes at specific selected time points and the mean rate of change in the tumor volumes at specific selected time points were compared. If a mouse's tumor grew too large, it was sacrificed; however, all tumor volumes measured prior to sacrifice were included in the modeling process. SAS v9.4 (SAS Institute, Cary, NC) was used for all analyses. All hypothesis tests were 2-sided, and p-values <0.05 were considered statistically significant.
sMIC tolerant transgenic (MB481 strain) mice (Liu et al, Perturbation of NK cell peripheral homeostasis accelerates prostate carcinoma metastasis. J. Clin. Invest. 123:4410, 2013) were injected with 1×10^5 mc-38 colon adenocarcinoma tumor cells via subcutaneous injection When tumor size reached approximately 75 mm^3, treatment was started. start treatment at four group. Bio96 100 μg/mouse, BioE4-03 100 μg/mouse, were given via oral gavage in a volume of 100 μl. PBS (100 μl) was given as a vehicle control. Peptides and vehicle were administered twice/week. Tumor volume was measured 3 times per week.
Direct comparisons were made between the PBS control and Bio96 and between PBS and BioE4-03 with respect to the mean tumor volumes at Day 21 and the mean rate of change in the tumor volumes at Day 21 (FIG. 5 through FIG. 7).

skin tissues from donors = test: Gene expression in donor skin tissues with TGFbeta-induced fibrosis; assay type: cell-based, human; conditions: skin tissue
Text: BioE4-03 further reduces Col1A1 and fibronectin (FN) gene expression in skin tissues from donors in which fibrosis was induced with TGFbeta (FIG. 25).

[8] = system: lung tissues of patients with IPF; test: Hydroxyproline in lung tissues of patients with IPF in organ culture; assay type: cell-based, human; conditions: IPF lung tissue, organ culture 72 hours
[9] = system: HCT116T cells (human colon carcinoma cells); test: Gene expression in HCT116T cells by real-time PCR; assay type: cell-based; conditions: 10 μg/ml, 48 hours
Protocol: (§3) The expression of several genes implicated in tumorigenesis, angiogenesis and cancer stem cell renewal was measured in a variety of tumor types and organs.
Tumor cells were treated with 10 μg/ml BioE4-03 for 48 hours. RNA was extracted and analyzed by real-time PCR. N=3-4 independent experiments (except for uPAR where n=2).

[10] = system: fibroblasts from lungs of patients with IPF; test: Gene expression in fibroblasts from lungs of patients with idiopathic pulmonary fibrosis (IPF); assay type: cell-based, human; conditions: IPF lung fibroblasts
tumors = test: Histologic analysis of tumors (H & E, Masson Trichrome); assay type: in vivo, mouse; conditions: for collagen bundles in the tumors (Masson Trichrome stain): compared to tumors from vehicle treated mice
Protocol: Histological analysis of tumors treated with vehicle alone, or with BioE4-03 or Bio96 peptides was performed.

[11] = system: A549 cells (human lung adenocarcinoma cells); test: Gene expression in A549 cells by real-time PCR; assay type: cell-based; conditions: A549, 10 μg/ml, 48 hours
Protocol: as §3
Tumor cells were treated with 10 μg/ml BioE4-03 for 48 hours. RNA was extracted and analyzed by real-time PCR. N=6-8 independent experiments. Statistical analysis was done using the paired t-test.

normal lung fibroblasts [12] = test: Fibronectin in supernatants of TGFbeta-treated normal lung fibroblasts; assay type: cell-based, human; conditions: 10 μg/ml to 80 μg/ml, 72 hours
Protocol: Normal lung fibroblasts were treated with TGFbeta without or with increasing concentrations for 96-87. Supernatants were assessed for fibronectin levels after 72 hours of treatment. 96-87 had no effect on TGFbeta-induced FN production, even with increasing concentration from 10 μg/ml to 80 μg/ml (FIG. 18).

[13] = system: human lung adenocarcinoma cells (A549); test: IL-6 protein by ELISA in supernatant of A549 cells; assay type: cell-based; conditions: A549, 72 hours, relative to vehicle controls
Protocol: as §1

normal lung fibroblasts [14] = test: Extracellular matrix proteins in TGFbeta-treated normal lung fibroblasts, immunoblotting; assay type: cell-based, human; conditions: 10 μg/ml peptide
Protocol: Normal lung fibroblasts were treated with vehicle as control (VC) or TGFbeta (T) in the presence or absence of 10 μg/ml of various peptide fragments. The extracellular matrix proteins, Collagen 1A1 and fibronectin (FN) were assessed using immunoblotting.

[15] = system: TRAMP C-2 mouse prostate tumor cells; conditions: C57BL6 mice, 50 μg/dose oral gavage twice per week, day 15, vs water vehicle
Protocol: as §2

SYCETWRTEAPSATGQASSLL (C-terminal endostatin-derived peptide 91-96)
MMP-1 production in media conditioned by the lung tissues [1]: no effect

Bio96-17: SEQ ID NO:4 being biotinylated at its N-terminus (Biotin-ATGQASSLLGGRLLGQSAASCHHA; not fully specified (C-terminus))
Coll1A2 levels ([2]; Bio96-17 experiment): significant reduction
SMA levels ([2]; Bio96-17 experiment): significant reduction
secreted Col1A1 protein levels ([3]; TGFbeta, cultured 120 hours): significant reduction
hydroxyproline levels [3]: significant reductions
TGFbeta-induced SMA levels (qRT-PCR) [4]: significant reduction

Biotin-NH2-SYCETWRTEAPSATGQASSLLGGRLLGQSAASCHHA-CONH2 [BioE4-03]
Coll1A2 levels ([2]; 10 μg/ml, 72 hours): significant reduction
SMA levels ([2]; 10 μg/ml, 72 hours): significant reduction
hydroxyproline levels [3]: significant reductions
hydroxyproline levels [5]: significant reduction
expression of IL-6 mRNA [6]: significantly reduced
mean rate of increase in the tumor volume at day 21 [7]: 76.0 mm^3 per day
mean tumor volume at day 21 (model-based estimate) [7]: 767.7 mm^3
Col1A1 gene expression (skin tissues from donors): reduces
fibronectin (FN) gene expression (skin tissues from donors): reduces
hydroxyproline levels [8]: significant reduction
Expression of IL-6 [9]: significantly reduced
Expression of PAI-I [9]: significantly reduced
Expression of PDGF-A [9]: significantly reduced
Expression of VEGF-A [9]: significantly reduced
Expression of uPA [9]: significantly reduced
Expression of uPAR ([9]; n=2): significantly reduced
Coll1A2 levels [10]: trend towards decrease
SMA levels [10]: trend towards decrease
collagen bundles in the tumors (Masson Trichrome stain) (tumors): thinner collagen bundles
tumor cell arrangement (H & E) (tumors; tumors from treated mice): looser cell arrangement
tumor necrosis (H & E) (tumors; tumors from treated mice): notable necrosis
Expression of IL-6 [11]: significantly reduced
Expression of LOX [11]: significantly reduced
Expression of PAI-I [11]: significantly reduced
Expression of PDGF-A [11]: significantly reduced
Expression of VEGF-A [11]: significantly reduced
Expression of uPA [11]: significantly reduced
Expression of uPAR [11]: significantly reduced

ATGQASSLLGGRLLGQ (C-terminal endostatin-derived peptide 96-87)
TGFbeta-induced FN production (supernatants) (normal lung fibroblasts [12]): no effect

SYCETWRTEAPSATGQASSLLGGRLLGQSAASCHHA (C-terminal endostatin-derived peptide E4-03)
expression of IL-6 mRNA [6]: reduced
MMP-1 production in media conditioned by the lung tissues [1]: induced MMP-1 production
IL-6 protein levels in the supernatant [13]: significantly reduced
Col1A1 levels induced by TGFbeta (immunoblotting) (normal lung fibroblasts [14]): effective at reducing
FN levels induced by TGFbeta (immunoblotting) (normal lung fibroblasts [14]): effective at reducing

Biotin-NH2-SYCETWRTEAPSATGQASSLLGGRLLGQSAASCHHAYIVLCIENSFMT-CONH2 [BioE4]
mean rate of increase in the tumor volume on day 15, Control vs. peptide group [15]: significantly (p=0.02) greater in the Control group
mean tumor volume at day 15 (model-based estimate), Control vs. peptide group [15]: significantly (p=0.0001) greater in the Control group

Biotin-NH2-ATGQASSLL-CONH2 (Biotin-ATGQASSLL-NH2; SMILES CC(C)C[C@H](NC(=O)[C@H](CC(C)C)NC(=O)[C@H](CO)NC(=O)[C@H](CO)NC(=O)[C@H](C)NC(=O)[C@H](CCC(N)=O)NC(=O)CNC(=O)[C@@H](NC(=O)[C@H](C)NC(=O)CCCC[C@@H]1SC[C@@H]2NC(=O)N[C@@H]21)[C@@H](C)O)C(N)=O) [Bio96]
mean rate of increase in the tumor volume at day 21 [7]: 90.6 mm^3 per day
mean tumor volume at day 21 (model-based estimate) [7]: 871.4 mm^3
collagen bundles in the tumors (Masson Trichrome stain) (tumors): thinner collagen bundles
tumor cell arrangement (H & E) (tumors; tumors from treated mice): looser cell arrangement

ATGQASSLLGGRLLGQSAASCHHA (C-terminal endostatin-derived peptide 96-17)
MMP-1 production in media conditioned by the lung tissues [1]: induced MMP-1 production
Col1A1 levels induced by TGFbeta (immunoblotting) (normal lung fibroblasts [14]): effective at reducing
FN levels induced by TGFbeta (immunoblotting) (normal lung fibroblasts [14]): effective at reducing

SYCETWRTEAPSATGQASSLLGGRLLGQ (C-terminal endostatin-derived peptide 91-97) [91-87]
MMP-1 production in media conditioned by the lung tissues [1]: no effect
